In brackets after ≈: the same amount, converted by molar mass. Peptide text beside a SMILES is read from it.
Assay: physchem
Description: The segments were synthesized at a cGMP facility using standard techniques for amino acid synthesis.

## CC[C@H](C)[C@H](NC(=O)[C@@H]1CCCN1C(=O)[C@H](C)NC(=O)CNC(=O)[C@@H]1CCCN1C(=O)[C@H](CCC(N)=O)NC(=O)[C@H](CO)NC(=O)[C@H](Cc1ccccc1)NC(=O)[C@H](Cc1ccccc1)NC(=O)[C@@H]1CCCN1C(=O)[C@H](CC(N)=O)NC(=O)[C@H](CCC(=O)O)NC(=O)[C@H](CCC(N)=O)NC(=O)[C@H](CC(C)C)NC(=O)[C@@H](NC(=O)[C@H](CS)NC(=O)[C@H](CCC(=O)O)NC(=O)[C@@H]1CCCN1C(=O)[C@H](CS)NC(=O)[C@H](CC(=O)O)NC(=O)[C@H](CCC(N)=O)NC(=O)[C@@H](NC(=O)[C@H](CC(=O)O)NC(=O)[C@@H]1CCCN1C(=O)[C@H](C)N)C(C)C)[C@@H](C)O)C(=O)O [first amino acid segment] (H-APDVQDCPECTLQENPFFSQPGAPI-OH)
  solubility: 1000 µg/mL (≈ 370 µM)
